Laboratory results as given in patent publication US6541237B1, “A-1,4-glucan lyase and its use in the production of 1.5-androfructose” (Danisco A/S, priority 1994, dated 2003).

How the values were obtained:
α-1,4-glucan lyase [1] = experiment: Effect of alcohols on activity and stability of the lyase (AF yield); format: biochemical, Gracilariopsis lemaneiformis
Method: 1-propanol, 2-propanol and 1-butanol were tested at the following concentrations (0%, 1%, 5% and 10%).
Ethanol was tested at the following concentrations (0, 1, 3, 5, 7, 9, 11, 13, 15%).

α-1,4-glucan lyase [2] = experiment: Degradation studies: AF released by the lyase from various substrates; format: biochemical, Gracilariopsis lemaneiformis; conditions: for activity of the lyase towards maltosaccharides / degradation by the lyase: in words; for AF released: substrate 10 mg/ml, 10 mM HOAc-NaOAc pH 3.8, 40 min at 45° C., 100 ul
Method: Reaction conditions: The reaction mixture contained 10 mM of HOAc-NaOAc (pH 3.8). The substrate concentration was 10 mg/ml. The final volume was 100 ul after the addition of lyase and water. The reaction time was 40 min at 45° C.

α-1,4-glucan lyase [3] = experiment: Reversible and irreversible inhibitors of the lyase; format: biochemical, Gracilariopsis lemaneiformis
[4] = Isoelectric focusing of the α-1,4-glucan lyases; format: physicochemical; conditions: isoelectrofocusing, pH gradient 3-9
Description: The relative migration rates were estimated from native PAGE on gels with 8-25% gradient; the pI values were estimated by isoelectrofocusing on gels with a pH gradient of 3-9.
FIG. 2. Isoelectric focusing of the α-1,4-glucan lyases on a gel with a pH gradient of pH 3 to pH 9. The gel was stained with PhastGel Blue R.

1-butanol
increase of AF yield (α-1,4-glucan lyase [1]; optimal concentration 5%, after 3-day incubation): 52%

1-propanol
AF yield (α-1,4-glucan lyase [1]; 1% (v/v), reaction time 1 day): 80 µmol
AF yield (α-1,4-glucan lyase [1]; 1% (v/v), reaction time 3 days): 280 µmol
AF yield (α-1,4-glucan lyase [1]; 1% (v/v), reaction time 6 days): 530 µmol
AF yield (α-1,4-glucan lyase [1]; 1% (v/v), reaction time 10 days): 803 µmol
AF yield (α-1,4-glucan lyase [1]; 5% (v/v), reaction time 1 day): 115 µmol
AF yield (α-1,4-glucan lyase [1]; 5% (v/v), reaction time 3 days): 367 µmol
AF yield (α-1,4-glucan lyase [1]; 5% (v/v), reaction time 6 days): 605 µmol
AF yield (α-1,4-glucan lyase [1]; 5% (v/v), reaction time 10 days): 853 µmol
AF yield (α-1,4-glucan lyase [1]; 10% (v/v), reaction time 1 day): 107 µmol
AF yield (α-1,4-glucan lyase [1]; 10% (v/v), reaction time 3 days): 307 µmol
AF yield (α-1,4-glucan lyase [1]; 10% (v/v), reaction time 6 days): 456 µmol
AF yield (α-1,4-glucan lyase [1]; 10% (v/v), reaction time 10 days): 583 µmol
increase of AF yield (α-1,4-glucan lyase [1]; optimal concentration 5%, after 6 days of incubation): 34%

CC(C)O [2-propanol]
increase of AF yield (α-1,4-glucan lyase [1]; optimal concentration 1%, after 10 days incubation): 20%

CCO [Ethanol]
increase of AF yield (α-1,4-glucan lyase [1]; optimal concentration 3%, 10 days incubation): 16%
increase of AF yield (α-1,4-glucan lyase [1]; optimal concentration 5%, 7 days incubation): 12%

OC[C@H]1O[C@H](O[C@H]2[C@H](O)[C@@H](O)[C@@H](O[C@H]3[C@H](O)[C@@H](O)[C@@H](O[C@H]4[C@H](O)[C@@H](O)C(O)O[C@@H]4CO)O[C@@H]3CO)O[C@@H]2CO)[C@H](O)[C@@H](O)[C@@H]1O (stereo partly shown) [Maltotetraose]
activity of the lyase towards maltosaccharides (α-1,4-glucan lyase [2]): highest activity
AF released (α-1,4-glucan lyase [2]): 670 nmol

OCC1OC(OC2C(CO)OC(OC3C(CO)OC(O)C(O)C3O)C(O)C2O)C(O)C(O)C1O (stereo not shown) [Maltotriose]
activity of the lyase towards maltosaccharides (α-1,4-glucan lyase [2]): lower activity
AF released (α-1,4-glucan lyase [2]): 654 nmol

O=C(O)c1cc[c]([Hg][Cl])cc1 [PCMB, p-chloromercuribenzoic acid]
decrease of lyase activity (α-1,4-glucan lyase [3]; 2 mM PCMB, same assay conditions as for deoxyjirimycin (substrate 2% amylopectin)): 60%
inhibition of the lyase activity (α-1,4-glucan lyase [3]; final concentration 2 mM PCMB): 96%

OC[C@H]1NC[C@H](O)[C@@H](O)[C@@H]1O [deoxyjirimycin]
remaining lyase activity (α-1,4-glucan lyase [3]; 25 μM inhibitor, substrate amylopectin 2%, algal lyase): 10.4%
lyase activity (α-1,4-glucan lyase [3]; 100 μM inhibitor, substrate amylopectin 2%): completely lost

OC[C@H]1O[C@H](OC[C@H]2OC(O)[C@H](O)[C@@H](O)[C@@H]2O)[C@H](O)[C@@H](O)[C@@H]1O (stereo partly shown) [isomaltose]
degradation by the lyase (α-1,4-glucan lyase [2]): not able to degrade

OC[C@H]1O[C@H](O[C@H]2[C@H](O)[C@@H](CO)OC(O)[C@@H]2O)[C@H](O)[C@@H](O)[C@@H]1O (stereo partly shown) [nigerose]
degradation by the lyase (α-1,4-glucan lyase [2]): slow rate

OC[C@H]1O[C@H](O[C@H]2O[C@H](CO)[C@@H](O)[C@H](O)[C@H]2O)[C@H](O)[C@@H](O)[C@@H]1O [trehalose]
degradation by the lyase (α-1,4-glucan lyase [2]): not able to degrade

OC[C@H]1O[C@@H]2O[C@H]3[C@H](O)[C@@H](O)[C@@H](O[C@H]4[C@H](O)[C@@H](O)[C@@H](O[C@H]5[C@H](O)[C@@H](O)[C@@H](O[C@H]6[C@H](O)[C@@H](O)[C@@H](O[C@H]7[C@H](O)[C@@H](O)[C@@H](O[C@H]8[C@H](O)[C@@H](O)[C@@H](O[C@H]1[C@H](O)[C@H]2O)O[C@@H]8CO)O[C@@H]7CO)O[C@@H]6CO)O[C@@H]5CO)O[C@@H]4CO)O[C@@H]3CO [β-cyclodextrins]
degradation by the lyase (α-1,4-glucan lyase [2]): not able to degrade

Maltoheptaose
activity of the lyase towards maltosaccharides (α-1,4-glucan lyase [2]): lower activity
AF released (α-1,4-glucan lyase [2]): 865 nmol

Maltohexaose
AF released (α-1,4-glucan lyase [2]): 826 nmol

Maltopentaose
activity of the lyase towards maltosaccharides (α-1,4-glucan lyase [2]): highest activity
AF released (α-1,4-glucan lyase [2]): 674 nmol

nigeran tetrasaccharide
degradation by the lyase (α-1,4-glucan lyase [2]): not able to degrade

panose
degradation by the lyase (α-1,4-glucan lyase [2]): slow rate

pullulan
degradation by the lyase (α-1,4-glucan lyase [2]): not able to degrade

B1: MC-lyase: lyase isolated from the fungus Morchella costata, ATCC (protein)
chain: MAGFSDPLNFCKAEDYYSVALDWKGPQKIIGVDTTPPKSTKFPKNWHGVNLRFDDGTLGVVQFIRPCVWRVRYDPGFKTSDEYGDENTRTIVQDYMSTLSNKLDTYRGLTWETKCEDSGDFFTFSSKVTAVEKSERTRNKVGDGLRIHLWKSPFRIQVVRTLTPLKDPYPIPNVAAAEARVSDKVVWQTSPKTFRKNLHPQHKMLKDTVLDIVKPGHGEYVGWGEMGGIQFMKEPTFMNYFNFDNMQYQQVYAQGALDSREPLYHSDPFYLDVNSNPEHKNITATFIDNYSQIAIDFGKTNSGYIKLGTRYGGIDCYGISADTVPEIVRLYTGLVGRSKLKPRYILGAHQACYGYQQESDLYSVVQQYRDCKFPLDGIHVDVDVQDGFRTFTTNPHTFPNPKEMFTNLRNNGIKCSTNITPVISINNREGGYSTLLEGVDKKYFIMDDRYTEGTSGNAKDVRYMYYGGGNKVEVDPNDVNGRPDFKDNYDFPANFNSKQYPYHGGVSYGYGNGSAGFYPDLNRKEVRIWWGMQYKYLFDMGLEFVWQDMTTPAIHTSYGDMKGLPTRLLVTSDSVTNASEKKLAIETWALYSYNLHKATWHGLSRLESRKNKRNFILGRGSYAGAYRFAGLWTGDNASNWEFWKISVSQVLSLGLNGVCIAGSDTGGFEPYRDANGVEEKYCSPELLIRWYTGSFLLPWLRNHYVKKDRKWFQEPYSYPKHLETHPELADQAWLYKSVLEICRYYVELRYSLIQLLYDCMFQNVVDGMPITRSMLLTDTEDTTFFNESQKFLDNQYMAGDDILVAPILHSRKEIPGENRDVYLPLYHTWYPSNLRPWDDQGVALGNPVEGGSVINYTARIVAPEDYNLFHSVVPVYVREGAIIPQIEVRQWTGQGGANRIKFNIYPGKDKEYCTYLDDGVSRDSAPEDLPQYKETHEQSKVEGAEIAKQIGKKTGYNISGTDPEAKGYHRKVAVTQTSKDKTRTVTIEPKHNGYDPSKEVGDYYTIILWYAPGFDGSIVDVSKTTVNVEGGVEHQVYKNSDLHTVVIDVKEVIGTTKSVKITCTAA
pI [4]: 4.5

B2: GLsc1-lyase: lyase purified from Gracilariopsis lemaneiformis collected in Santa Cruz, Calif. (protein)
chain: TALSDKQTAISIGPDNPDGINYQNYDYIPVAGFTPLSNTNWYAAGSSTPGGITDWTATMNVKFDRIDNPSYSNNHPVQIQVTSYNNNSFRIRFNPDGPIRDVSRGPILKQQLTWIRNQELAQGCNPNMSFSPEGFLSFETKDLNVIIYGNCKMRVTKKDGYLVMENDECNSQSDGNKCRGLMYVDRLYGNAIASVQTNFHKDTSRNEKFYGAGEVNCRYEEQGKAPTYVLERSGLAMTNYNYDNLNYNQPDVVPPGYPDHPNYYIPMYYAAPWLVVQGCAGTSKQYSYGWFMDNVSQSYMNTGDTAWNCGQENLAYMGAQYGPFDQHFVYGDGDGLEDVVKAFSFLQGKEFEDKKLNKRSVMPPKYVFGFFQGVFGALSLLKQNLPAGENNISVQEIVEGYQDNDYPFEGLAVDVDMQDDLRVFTTKPEYWSANMVGEGGDPNNRSVFEWAHDRGLVCQTNVTCFLRNDNSGKPYEVNQTLREKQLYTKNDSLNNTDFGTTSDGPGDAYIGHLDYGGGVECDAIFPDWGRPDVAQWWGENYKKLFSIGLDFVWQDMTVPAMMPHRLGDAVNKNSGSSAPGWPNENDPSNGRYNWKSYHPQVLVTDMRYGAEYGREPMVSQRNIHAYTLCESTRREGIVGNADSLTKFRRSYIISRGGYIGNQHFGGMWVGDNSATESYLQMMLANIINMNMSCLPLVGSDIGGFTQYNDAGDPTPEDLMVRFVQAGCLLPWFRNHYDRWIESKKHGKKYQELYMYPGQKDTLKKFVEFRYRWQEVLYTAMYQNATTGEPIIKAAPMYNNDVNVYKSQNDHFLLGGHDGYRILCAPVVRENATSREVYLPVYSKWFKFGPDFDTKPLENEIQGGQTLYNYAAPLNDSPIFVREGTILPTRYTLDGVNKSINTYTDNDPLVFELFPLENNQAHGLFYHDDGGVTTNAEDFGKYSVISVKAAQEGSQMSVKFDNEVYEHQWGASFYVRVRNMGAPSNINVSSQIGQQDMQQSSVSSRAQMFTSANDGEYWVDQSTNSLWLKLPGAVIQDAAITVR
pI [4]: 4.1

B3: GLsc2-lyase: second lyase purified from Gracilariopsis lemaneiformis collected in Santa Cruz, Calif. (protein)
chain: TALSDKQTAISIGPDNPDGINYQNYDYIPVAGFTPLSNTNWYAAGSSTPGGITDWTATMNVKFDRIDNPSYSNNHPVQIQVTSYNNNSFRIRFNPDGPIRDVSRGPILKQQLTWIRNQELAQGCNPNMSFSPEGFLSFETKDLNVIIYGNCKMRVTKKDGYLVMENDECNSQSDGNKCRGLMYVDRLYGNAIASVQTNFHKDTSRNEKFYGAGEVNCRYEEQGKAPTYVLERSGLAMTNYNYDNLNYNQPDVVPPGYPDHPNYYIPMYYAAPWLVVQGCAGTSKQYSYGWFMDNVSQSYMNTGDTAWNCGQENLAYMGAQYGPFDQHFVYGDGDGLEDVVKAFSFLQGKEFEDKKLNKRSVMPPKYVFGFFQGVFGALSLLKQNLPAGENNISVQEIVEGYQDNDYPFEGLAVDVDMQDDLRVFTTKPEYWSANMVGEGGDPNNRSVFEWAHDRGLVCQTNVTCFLRNDNSGKPYEVNQTLREKQLYTKNDSLNNTDFGTTSDGPGDAYIGHLDYGGGVECDAIFPDWGRPDVAQWWGENYKKLFSIGLDFVWQDMTVPAMMPHRLGDAVNKNSGSSAPGWPNENDPSNGRYNWKSYHPQVLVTDMRYGAEYGREPMVSQRNIHAYTLCESTRREGIVGNADSLTKFRRSYIISRGGYIGNQHFGGMWVGDNSATESYLQMMLANIINMNMSCLPLVGSDIGGFTQYNDAGDPTPEDLMVRFVQAGCLLPWFRNHYDRWIESKKHGKKYQELYMYPGQKDTLKKFVEFRYRWQEVLYTAMYQNATTGEPIIKAAPMYNNDVNVYKSQNDHFLLGGHDGYRILCAPVVRENATSREVYLPVYSKWFKFGPDFDTKPLENEIQGGQTLYNYAAPLNDSPIFVREGTILPTRYTLDGVNKSINTYTDNDPLVFELFPLENNQAHGLFYHDDGGVTTNAEDFGKYSVISVKAAQEGSQMSVKFDNEVYEHQWGASFYVRVRNMGAPSNINVSSQIGQQDMQQSSVSSRAQMFTSANDGEYWVDQSTNSLWLKLPGAVIQDAAITVR
pI [4]: 4.1
